pEC50: −log10 of the molar value. Bounds are passed on as bounds.

The record followed here is patent publication US11840532B2, “Modulators of THR-β and methods of use thereof” (ALIGOS THERAPEUTICS, INC., priority 2020, dated 2023).

In one test the test system is Huh-7 cells. The experiment in a line: Huh-7 Differential Gene Expression (Assay 2): CPT1A RT-qPCR. The class given is cell-based. To be noted: Homo sapiens, CPT1A gene expression in Huh-7 cells, 24 hr treatment, TH-depleted DMEM; for pEC50: read-out: Activity category Assay 2 EC50; for Emax: read-out: Activity category Assay 2 Emax. On the procedure:
Huh-7 Differential Gene Expression (Assay 2)
Fetal bovine serum (FBS) was incubated with washed resin (50 mg resin/mL FBS; resin weight is dry weight of resin prior to washing) for 5 hr at room temperature on a rotor. The FBS was separated from the resin via centrifugation and incubated with new, washed resin for 18h at room temperature on a rotor.
Cell Culture and Drug Treatment
Huh-7 cells were cultured in DMEM (10-013-CM, Corning) supplemented with 10% FBS and 1% Pen-Strep at 37° C. under 5% CO2. When 70-80% confluence was reached, the cells were removed by trypsinization. The medium was aspirated from the cell culture dish, the cell monolayer was washed with 1× PBS, and 0.05% trypsin, 0.53 mM EDTA (25-052-CV, Corning) solution was added to the dish. After 3 min incubation, the cells were detached completely by repeatedly pipetting solution onto the monolayer. Equal volume of DMEM supplemented with 10% rFBS and 1% Pen-Strep (TH-depleted DMEM) was added to the dish to inactivate the trypsin. The cell suspension was centrifuged at 350×g at room temperature for 3 min. The supernatant was aspirated out and the cell pellet was resuspended in TH-depleted DMEM. […] After 24 hr incubation, the media was replaced with treatment media. All compounds were serially diluted in DMSO and final concentrations were reached by dilution in TH-depleted DMEM (0.1% DMSO). The cells were incubated in treatment media for 24 hr. Treatments were performed in biological duplicates.
After 24 h in treatment media, the cells were lysed directly on the culture plates and cDNA was produced using the TaqMan™ Fast Advanced Cells-to-CT™ Kit (A35374, Invitrogen) and following the manufacturer's protocol. RT-qPCR for CPT1A (Hs00912671_m1) and two housekeeping genes, ACTB (Hs01060665_g1) and TFG (Hs02832013_g1), was performed using TaqMan™ Fast Advanced Master Mix. RT-qPCR reactions were run on the qTOWER^3 84 G (Analytik Jena) in technical duplicates.
ΔRn values were obtained from the qPCRsoft384 1.0 software and CPT1A gene expression was quantified via the 2ΔΔCt method. Dose-response curves were generated using GraphPad Prism 8 using four parameter logistic equation without top constraint to derive EC50 and Emax.
(In general: Quantitative PCR measures a nucleic acid by following its amplification.)

Test [1] deals with T1, human thyroid receptor beta ligand-binding domain (THRβ) (Homo sapiens, UniProt P10828).
T1 construct: purchased Invitrogen
T1 sequence (P10828 217-461 limits assumed): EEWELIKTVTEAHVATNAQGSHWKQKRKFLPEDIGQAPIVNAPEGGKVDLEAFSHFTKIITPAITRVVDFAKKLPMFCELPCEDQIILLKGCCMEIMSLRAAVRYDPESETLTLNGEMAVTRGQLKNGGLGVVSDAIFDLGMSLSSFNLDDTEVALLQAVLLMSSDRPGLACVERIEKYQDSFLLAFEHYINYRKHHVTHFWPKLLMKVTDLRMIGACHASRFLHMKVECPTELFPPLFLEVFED
As to the kind of experiment: THR Biochemical Assay (Assay 1): TR-FRET thyroid receptor beta coactivator assay. As to conditions: TR-FRET coactivator recruitment, THRβ LBD; for Emax: read-out: Activity category Assay 1 THRβ (Emax); for pEC50: agonist EC50, read-out: Activity category Assay 1 THRβ (EC50). The source says: (§1) THR Biochemical Assay (sAsay 1)
(§2) The TR-FRET thyroid receptor beta coactivator assay was used with slight, optimized modifications of the manufacturer's protocol (Invitrogen). The assay uses a terbium-labeled anti-GST antibody, a glutathione-S-transferase (GST) tagged human thyroid receptor, beta or alpha, ligand-binding domain (LBD), and a fluorescein labeled SRC2-2 coactivator peptide. The antibody interacts with the LBD, where the agonist also binds, resulting in increased affinity for the SRC2-2 coactivator peptide causing energy transfer of the acceptor fluorophore and a FRET emission shift from 495 to 520 nm. The energy transfer is detected as an increase in the fluorescence emission of the fluorescein acceptor, and a decrease in the fluorescence emission of the terbium donor. The assay is performed in a 384-well black plate in a final volume of 20 μL. Serial dilution of various test agonists was performed in DMSO (1% final DMSO concentration) and added to the test plate. Thyroid receptor beta LBD is added to the plate at a final concentration of 1 nM, followed by the mixture of the fluorescein labeled SRC2-2 coactivator peptide, and the terbium-labeled anti-GST antibody at final concentrations of 200 nM and 2 nM respectively. The assay is incubated for 1 h at rt protected from light. The TR-FRET is then measured on a Victor multilabel reader (Perkin Elmer) using an excitation wavelength of 340 nm with emission filters of 495 nm and 520 nm. The assay is quantified by expressing a ratio (520:495) of the intensities, and the resulting activation curves; EC50 values were generated using a sigmoidal dose response (variable slope) equation in GraphPad™ Prism 8.0.
(In general: Time-resolved FRET reads energy transfer from a long-lived donor to a nearby acceptor.)

Test [2] addresses T2, human thyroid receptor alpha ligand-binding domain (THRα) (Homo sapiens, UniProt P10827).
T2 construct: purchased Invitrogen
As to the kind of experiment: THR Biochemical Assay (Assay 1): TR-FRET thyroid receptor coactivator assay, alpha LBD. As to conditions: TR-FRET coactivator recruitment; for Emax: read-out: Activity category Assay 1 THRα (Emax); for pEC50: agonist EC50, read-out: Activity category Assay 1 THRα (EC50).
Excerpt: as §1, §2

T2 sequence (P10827 163-410 isoform P10827-2 limits assumed, other chains not shown): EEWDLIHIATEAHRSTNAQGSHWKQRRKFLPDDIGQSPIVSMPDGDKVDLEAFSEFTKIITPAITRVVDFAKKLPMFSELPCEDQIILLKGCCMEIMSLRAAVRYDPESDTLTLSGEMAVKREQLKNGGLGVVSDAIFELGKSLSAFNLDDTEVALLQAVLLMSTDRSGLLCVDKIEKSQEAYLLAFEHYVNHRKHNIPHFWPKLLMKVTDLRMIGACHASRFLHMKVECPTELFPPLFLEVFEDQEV

In the case of `Cc1cc(OCC(=O)O)c(C)c(C)c1Cc1ccc2[nH]cc(C(C)C)c2n1` [Compound 1, 2-(4-((3-isopropyl-1H-pyrrolo[3,2-b]pyridin-5-yl)methyl)-2,3,5-trimethylphenoxy)acetic acid], the pEC50 is 6.00 to 7.00 in the test on Huh-7 cells, > 7.30 in test [1] and 6.00 to 6.60 in test [2]. Further, the figures for the maximum response (Emax) (in the test with Huh-7 cells; in test [1]; in test [2]) were > 75%, < 50% and < 50%, respectively.
Take `Cc1cc(OCC(=O)O)cc(C)c1Cc1ccc2[nH]cc(C(C)C)c2n1` [Compound 2, 2-(4-((3-isopropyl-1H-pyrrolo[3,2-b]pyridin-5-yl)methyl)-3,5-dimethylphenoxy)acetic acid]: the negative logarithm of the EC50 (pEC50) in the test on Huh-7 cells is > 7.00; in test [1] it was > 7.30; in test [2], 6.60 to 7.30. The Emax with Huh-7 cells was > 75%; in test [1] it was < 50%; in test [2], < 50%.
For the compound `Cc1cc(NC(=O)c2noc(=O)[nH]2)cc(C)c1Cc1ccc2[nH]cc(C(C)C)c2n1` [Compound 3, N-(4-((3-isopropyl-1H-pyrrolo[3,2-b]pyridin-5-yl)methyl)-3,5-dimethylphenyl)-5-oxo-4,5-dihydro-1,2,4-oxadiazole-3-carboxamide], the Emax in test [1] and in test [2] was < 50% throughout. Also, the pEC50 in test [1] and in test [2] was > 7.30 each time.
As to `Cc1cc(NC(=O)C(=O)O)cc(C)c1Cc1ccc2[nH]cc(C(C)C)c2n1` [Compound 4, 2-((4-((3-isopropyl-1H-pyrrolo[3,2-b]pyridin-5-yl)methyl)-3,5-dimethylphenyl)amino)-2-oxoacetic acid], in test [1], the Emax is 50 to 75% and the pEC50 was > 7.30. Besides, in test [2], the Emax was < 50% and the pEC50 was > 7.30.
In the case of `CCOC(=O)C(=O)Nc1cc(C)c(Cc2ccc3[nH]cc(C(C)C)c3n2)c(C)c1` [Compound 5, ethyl 2-((4-((3-isopropyl-1H-pyrrolo[3,2-b]pyridin-5-yl)methyl)-3,5-dimethylphenyl)amino)-2-oxoacetate], the maximum response (Emax) in test [1] and in test [2] was < 50% throughout. For the same compound, the pEC50 in test [1] and in test [2] was > 7.30 throughout.
In the case of `Cc1nc(OCC(=O)O)c(C)c(C)c1Cc1ccc2[nH]cc(C(C)C)c2n1` [Compound 6, [[5-([3-isopropyl-1H-pyrrolo[3,2-b]pyridin-5-yl]methyl)-3,4,6-trimethylpyridin-2-yl]oxy]acetic acid], the pEC50 was 6.00 to 7.00 with Huh-7 cells, 6.60 to 7.30 in test [1] and 4.60 to 6.00 in test [2]. Also, the maximum response (Emax) (with Huh-7 cells; in test [1]; in test [2]) was < 50% each time.
As for `Cc1cc(OC(C)C(=O)O)c(C)c(C)c1Cc1ccc2[nH]cc(C(C)C)c2n1` (stereo not drawn) [Compound 7, 2-(4-((3-isopropyl-1H-pyrrolo[3,2-b]pyridin-5-yl)methyl)-2,3,5-trimethylphenoxy)propanoic acid], in test [1], the maximal effect (Emax) is < 50% and the negative-log EC50 (pEC50) was 4.60 to 6.00. For the same compound, in test [2], the maximal effect (Emax) is < 50% and the pEC50 is < 4.60.
`Cc1cc(OC(C)(C)C(=O)O)c(C)c(C)c1Cc1ccc2[nH]cc(C(C)C)c2n1` [Compound 8, 2-(4-((3-isopropyl-1H-pyrrolo[3,2-b]pyridin-5-yl)methyl)-2,3,5-trimethylphenoxy)-2-methylpropanoic acid]: in test [1], the Emax was < 50% and the pEC50 was > 7.30. In test [2], the maximum response (Emax) is < 50% and the pEC50 is < 4.60.
Take `Cc1cc(OC(F)C(=O)O)c(C)c(C)c1Cc1ccc2[nH]cc(C(C)C)c2n1` (stereo not drawn) [Compound 9, 2-fluoro-2-(4-((3-isopropyl-1H-pyrrolo[3,2-b]pyridin-5-yl)methyl)-2,3,5-trimethylphenoxy)acetic acid]: in test [1], the Emax is < 50% and the pEC50 was > 7.30. In test [2], the Emax was < 50% and the negative-log EC50 (pEC50) was < 4.60.
Regarding `Cc1cc(OCc2nn[nH]n2)c(C)c(C)c1Cc1ccc2[nH]cc(C(C)C)c2n1` [Compound 10, 5-(4-((2H-tetrazol-5-yl)methoxy)-2,3,6-trimethylbenzyl)-3-isopropyl-1H-pyrrolo[3,2-b]pyridine], the Emax in test [1] and in test [2] was < 50% in each case. For the same compound, the negative logarithm of the EC50 (pEC50) in test [1] is > 7.30; in test [2] it was < 4.60.
As to `Cc1cc(OCc2noc(=O)[nH]2)c(C)c(C)c1Cc1ccc2[nH]cc(C(C)C)c2n1` [Compound 11, 3-((4-((3-isopropyl-1H-pyrrolo[3,2-b]pyridin-5-yl)methyl)-2,3,5-trimethylphenoxy)methyl)-1,2,4-oxadiazol-5(4H)-one], the results for the pEC50 (with Huh-7 cells; in test [1]; in test [2]) were 6.00 to 7.00, > 7.30 and < 4.60, respectively. Also, the Emax (in the test on Huh-7 cells; in test [1]; in test [2]) was < 50% in each case.
In the case of `N[C@@H](Cc1cc(I)c(Oc2ccc(O)c(I)c2)c(I)c1)C(=O)O` [Reference(T3), triiodothyronine, reference compound], in the test with Huh-7 cells, the pEC50 was > 7.00 and the Emax is > 75%.

As a reminder, the pEC50 is −log10 of the EC50, conventionally taken in molar units. Usually Emax stands for the size of the effect at its maximum, as opposed to the concentration needed.
